Test in all cases: c-Kit assay: Ba/F3 KIT mutant viability (Cell Titer-Glo, 72 hours)
What all share (type): cell-based
(In general: ATP-based viability assays read luminescence as a measure of living cells.)

Assay [1] addresses T1, BAF3 FL KIT EX11DEL/T6701 (Homo sapiens, UniProt P10721, T670I, cells depend on it, form not given).
T1 construct: "BAF3 FL KIT EX11DEL/ T6701"
The conditions noted are these: EX11DEL/T6701, viability after 72 hours. On the procedure:
(§1) KIT cDNAs were synthesized by GenScript and cloned into the pLVX-IRES-Puro vector (Clontech). Viral particles were produced by transfecting pLVX-IRES-puro vectors containing KIT mutant genes into HEK293 cells (Invitrogen) using the Trans-Lentiviral ORF Packaging Kit (Thermo Scientific). 48 hours post-transfection, virus-containing supernatants were harvested and incubated for another 48-72 hours with parental Ba/F3 cells (DSMZ) in the presence of 10 ng/mL […] (R&D Systems). Transduced Ba/F3 cells were then selected by IL-3 withdrawal and puromycin (0.5-1 μg/mL, Invitrogen).
(§2) Cell lines (i.e., EX11DEL, EX11DEL/D816H, EX11DEL/T670I, and EX11DEL/V654A) were plated into 384 well plates using RPMI 1640 supplemented with 10% FBS at densities that produced linear growth and incubated at 37° C. in 5% (v/v) CO2. Cells were treated with eight concentrations of compound over a 4-fold dilution (10 μM to 0.61 nM) and viability was assessed using Cell Titer-Glo assay (Promega) after 72 hours. Data were plotted as percent viability relative to vehicle-treated cells. Dose-responses curves were generated and used to calculate IC50 values.

The target of assay [2] is T2, BAF3 FL KIT EX11DEL/D816H (Homo sapiens, UniProt P10721, D816H, cells depend on it, form not given).
T2 construct: "BAF3 FL KIT EX11DEL/ D816H"
As to conditions: viability after 72 hours. On the procedure: as §1, §2

Assay [3] concerns the target T3, BAF3 FL KIT EX11DEL/V654A (Homo sapiens, UniProt P10721, V654A, cells depend on it, form not given).
T3 construct: "BAF3 FL KIT EX11DEL/ V654A"
As to conditions: viability after 72 hours. On the procedure:
as §1, §2

The target of a further assay is T4, BAF3 FL KIT EX11DEL (Homo sapiens, UniProt P10721, cells depend on it, form not given).
T4 construct: "BAF3 FL KIT EX11DEL"
As to conditions: viability after 72 hours. On the procedure:
as §1, §2

Each structure is given as a SMILES string.

T1 sequence (P10721 with tags, fused parts or gaps DEL557-558/T670I, form open): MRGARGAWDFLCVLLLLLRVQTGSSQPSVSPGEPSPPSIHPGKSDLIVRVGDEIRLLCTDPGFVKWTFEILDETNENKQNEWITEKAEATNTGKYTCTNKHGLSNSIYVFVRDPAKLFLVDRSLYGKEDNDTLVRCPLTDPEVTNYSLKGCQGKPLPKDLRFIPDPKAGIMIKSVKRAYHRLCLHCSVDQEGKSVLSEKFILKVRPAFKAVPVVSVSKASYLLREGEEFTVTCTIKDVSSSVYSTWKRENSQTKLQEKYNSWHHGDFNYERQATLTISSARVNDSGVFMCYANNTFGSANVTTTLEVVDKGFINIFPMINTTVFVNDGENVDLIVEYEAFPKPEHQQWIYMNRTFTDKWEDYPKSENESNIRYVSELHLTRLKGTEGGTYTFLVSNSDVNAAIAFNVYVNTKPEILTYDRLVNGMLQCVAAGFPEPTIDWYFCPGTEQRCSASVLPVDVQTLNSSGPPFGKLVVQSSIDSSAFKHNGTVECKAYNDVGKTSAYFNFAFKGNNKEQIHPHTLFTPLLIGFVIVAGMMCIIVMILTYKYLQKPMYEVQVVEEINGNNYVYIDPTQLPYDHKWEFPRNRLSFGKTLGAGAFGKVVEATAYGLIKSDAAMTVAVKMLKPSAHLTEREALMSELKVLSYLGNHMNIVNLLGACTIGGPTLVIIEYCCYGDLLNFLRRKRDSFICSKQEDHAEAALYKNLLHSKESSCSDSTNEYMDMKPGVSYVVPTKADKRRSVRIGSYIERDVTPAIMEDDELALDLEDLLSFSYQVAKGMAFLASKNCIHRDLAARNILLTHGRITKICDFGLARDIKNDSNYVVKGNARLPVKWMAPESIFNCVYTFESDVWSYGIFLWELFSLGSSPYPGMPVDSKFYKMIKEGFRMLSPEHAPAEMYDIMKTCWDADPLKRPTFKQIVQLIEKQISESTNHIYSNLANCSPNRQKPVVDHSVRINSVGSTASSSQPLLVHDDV
T2 sequence (P10721 with tags, fused parts or gaps DEL557-558/D816H, form open): as the sequence (P10721 with tags, fused parts or gaps DEL557-558/T670I, form open) above, with I668T, D814H counted along it
T4 sequence (P10721 with tags, fused parts or gaps DEL557-558): as the sequence (P10721 with tags, fused parts or gaps DEL557-558/T670I, form open) above, with I668T counted along it
T3 sequence (P10721 with tags, fused parts or gaps DEL557-558/V654A, form open): as the sequence (P10721 with tags, fused parts or gaps DEL557-558/T670I, form open) above, with V652A, I668T counted along it

In the case of `CNC(=O)Cn1cnc2cc(C#Cc3cc(C(=O)Nc4cc(C(F)(F)F)ccn4)ccc3C)ccc21` [Compound I-1, 4-Methyl-3-((1-(2-(methylamino)-2-oxoethyl)-1H-benzo[d]imidazol-5-yl)ethynyl)-N-(4-(trifluoromethyl)pyridin-2-yl)benzamide], the GI50 was 100 to 10000 nM in assay [1], 100 to 10000 nM in assay [2], 100 to 10000 nM in assay [3] and less than 10 nM at BAF3 FL KIT EX11DEL.

For the compound `Cc1ccc(C(=O)Nc2cc(C(F)(F)F)ccn2)cc1C#Cc1ccc2[nH]cnc2c1` [Compound I-2, 3-((1H-benzo[d]imidazol-5-yl)ethynyl)-4-methyl-N-(4-(trifluoromethyl)pyridin-2-yl)benzamide], the GI50 was 10 to 50 nM in assay [1], 50 to 100 nM in assay [2], 10 to 50 nM in assay [3] and less than 10 nM at BAF3 FL KIT EX11DEL.

For `Cc1ccc(C(=O)Nc2cc(C(F)(F)F)ccn2)cc1C#Cc1ccc2c(c1)ncn2CCN(C)C` [Compound I-3, 3-((1-(2-(dimethylamino)ethyl)-1H-benzo[d]imidazol-5-yl)ethynyl)-4-methyl-N-(4-(trifluoromethyl)pyridin-2-yl)benzamide], the GI50 in assay [1] lay in the range of 100 to 10000 nM; in assay [2], 100 to 10000 nM; in assay [3] it was 100 to 10000 nM; on BAF3 FL KIT EX11DEL, 50 to 100 nM.

On to `COCCn1cnc2cc(C#Cc3cc(C(=O)Nc4cc(C(F)(F)F)ccn4)ccc3C)ccc21` [Compound I-4, 3-((1-(2-methoxyethyl)-1H-benzo[d]imidazol-5-yl)ethynyl)-4-methyl-N-(4-(trifluoromethyl)pyridin-2-yl)benzamide], for which the GI50 in assay [1] was 50 to 100 nM; in assay [2] it was 100 to 10000 nM; in assay [3], 50 to 100 nM; at BAF3 FL KIT EX11DEL, less than 10 nM.

`Cc1ccc(C(=O)Nc2cc(C(F)(F)F)ccn2)cc1C#Cc1ccc2c(c1)ncn2CCN1CCOCC1` [Compound I-5, 4-methyl-3-((1-(2-morpholinoethyl)-1H-benzo[d]imidazol-5-yl)ethynyl)-N-(4-(trifluoromethyl)pyridin-2-yl)benzamide]: the GI50 is 100 to 10000 nM in assay [1], 100 to 10000 nM in assay [2], 100 to 10000 nM in assay [3] and 50 to 100 nM at BAF3 FL KIT EX11DEL.

In the case of `Cc1ccc(C(=O)Nc2cc(C(F)(F)F)ccn2)cc1C#Cc1ccc2c(c1)ncn2CCCN(C)C` [Compound I-6, 3-((1-(3-(dimethylamino)propyl)-1H-benzo[d]imidazol-5-yl)ethynyl)-4-methyl-N-(4-(trifluoromethyl)pyridin-2-yl)benzamide], the GI50 in assay [1] was in the range of 50 to 100 nM; in assay [2], 100 to 10000 nM; in assay [3], 100 to 10000 nM; at BAF3 FL KIT EX11DEL, 10 to 50 nM.

Take `CCn1cnc2cc(C#Cc3cc(C(=O)Nc4cc(C(F)(F)F)ccn4)ccc3C)ccc21` [Compound I-7, 3-((1-ethyl-H-benzo[d]imidazol-5-yl)ethynyl)-4-methyl-N-(4-(trifluoromethyl)pyridin-2-yl)benzamide]: the GI50 in assay [1] is 50 to 100 nM; in assay [2], 100 to 10000 nM; in assay [3], 100 to 10000 nM; at BAF3 FL KIT EX11DEL it was 10 to 50 nM.

In the case of `Cc1ccc(C(=O)Nc2cc(C(F)(F)F)ccn2)cc1C#Cc1ccc2c(c1)ncn2C` [Compound I-8, 4-methyl-3-((1-methyl-1H-benzo[d]imidazol-5-yl)ethynyl)-N-(4-(trifluoromethyl)pyridin-2-yl)benzamide], the GI50 lay in the range of 10 to 50 nM in assay [1], 50 to 100 nM in assay [2], 10 to 50 nM in assay [3] and 10 to 50 nM on BAF3 FL KIT EX11DEL.

Regarding `Cc1ccc(C(=O)Nc2cc(C(F)(F)F)ccn2)cc1C#Cc1ccc2nc(N)[nH]c2c1` [Compound I-10, 3-((2-amino-1H-benzo[d]imidazol-6-yl)ethynyl)-4-methyl-N-(4-(trifluoromethyl)pyridin-2-yl)benzamide], the GI50 was 100 to 10000 nM in assay [1], 100 to 10000 nM in assay [2], 100 to 10000 nM in assay [3] and 10 to 50 nM on BAF3 FL KIT EX11DEL.

Turning to `Cc1ccc(C(=O)Nc2cc(C(F)(F)F)ccn2)cc1C#Cc1ccc2ncn(C)c2c1` [Compound I-11, 4-methyl-3-((1-methyl-1H-benzo[d]imidazol-6-yl)ethynyl)-N-(4-(trifluoromethyl)pyridin-2-yl)benzamide], the GI50 (in assay [1]; in assay [2]; in assay [3]; at BAF3 FL KIT EX11DEL) was 100 to 10000 nM throughout.

With `Cc1ccc(C(=O)Nc2cc(C(F)(F)F)ccn2)cc1C#Cc1ccc2c(c1)ncn2Cc1cccnc1` [Compound I-12, 4-methyl-3-((1-(pyridin-3-ylmethyl)-1H-benzo[d]imidazol-5-yl)ethynyl)-N-(4-(trifluoromethyl)pyridin-2-yl)benzamide], the concentration for 50% growth inhibition (GI50) in assay [1] was 100 to 10000 nM; in assay [2], 100 to 10000 nM; in assay [3], 100 to 10000 nM; on BAF3 FL KIT EX11DEL it was 10 to 50 nM.

Regarding `Cc1ccc(C(=O)Nc2cc(C(F)(F)F)ccn2)cc1C#Cc1ccc2c(c1)ncn2C1CC1` [Compound I-13, 3-((1-cyclopropyl-1H-benzo[d]imidazol-5-yl)ethynyl)-4-methyl-N-(4-(trifluoromethyl)pyridin-2-yl)benzamide], the GI50 in assay [1] lay in the range of 100 to 10000 nM; in assay [2], 100 to 10000 nM; in assay [3] it was 100 to 10000 nM; at BAF3 FL KIT EX11DEL, 10 to 50 nM.

`Cc1ccc(C(=O)Nc2cc(C(F)(F)F)ccn2)cc1C#Cc1ccc2c(c1)ncn2-c1cccc(N2CCN(C)CC2)c1` [Compound I-14, 4-methyl-3-((1-(3-(4-methylpiperazin-1-yl)phenyl)-1H-benzo[d]imidazol-5-yl)ethynyl)-N-(4-(trifluoromethyl)pyridin-2-yl)benzamide]: the GI50 in assay [1] is 100 to 10000 nM; in assay [2], 100 to 10000 nM; in assay [3], 100 to 10000 nM; on BAF3 FL KIT EX11DEL, 50 to 100 nM.

As to `Cc1ccc(C(=O)Nc2cc(C(F)(F)F)ccn2)cc1C#Cc1ccc2c(c1)ncn2-c1ccc(N2CCN(C)CC2)cc1` [Compound I-15, 4-methyl-3-((1-(4-(4-methylpiperazin-1-yl)phenyl)-1H-benzo[d]imidazol-5-yl)ethynyl)-N-(4-(trifluoromethyl)pyridin-2-yl)benzamide], the GI50 in assay [1] lay within 100 to 10000 nM; in assay [2] it was 100 to 10000 nM; in assay [3] it was 100 to 10000 nM; on BAF3 FL KIT EX11DEL it was 50 to 100 nM.

For `Cc1ccc(C(=O)Nc2cc(C(F)(F)F)ccn2)cc1C#Cc1ccc2c(c1)ncn2-c1cnn(C)c1` [Compound I-17, 4-methyl-3-((1-(1-methyl-1H-pyrazol-4-yl)-1H-benzo[d]imidazol-5-yl)ethynyl)-N-(4-(trifluoromethyl)pyridin-2-yl)benzamide], the GI50 in assay [1] was 10 to 50 nM; in assay [2], 50 to 100 nM; in assay [3] it was 10 to 50 nM; at BAF3 FL KIT EX11DEL it was 10 to 50 nM.

Regarding `Cc1ccc(NC(=O)c2ccc(CN3CCN(C)CC3)c(C(F)(F)F)c2)cc1C#Cc1ccc2c(c1)ncn2C` [Compound I-18, N-(4-methyl-3-((1-methyl-1H-benzo[d]imidazol-5-yl)ethynyl)phenyl)-4-((4-methylpiperazin-1-yl)methyl)-3-(trifluoromethyl)benzamide], the GI50 (in assay [1]; in assay [2]; in assay [3]; at BAF3 FL KIT EX11DEL) was 100 to 10000 nM in each case.

For `Cc1ccc(C(=O)Nc2cc(C(F)(F)F)ccn2)cc1C#Cc1ccc2c(c1)ncn2-c1cnn(C)c1` [Compound I-19, 4-methyl-3-((1-(1-methyl-1H-pyrazol-4-yl)-1H-benzo[d]imidazol-5-yl)ethynyl)-N-(4-(trifluoromethyl)pyridin-2-yl)benzamide], the GI50 in assay [1] was less than 10 nM; in assay [2], 10 to 50 nM; in assay [3] it was 10 to 50 nM; at BAF3 FL KIT EX11DEL, less than 10 nM.

For `Cc1ccc(C(=O)Nc2cc(C(F)(F)F)ccn2)cc1C#Cc1ccc2c(c1)ncn2C1CCN(C)CC1` [Compound I-20, 4-methyl-3-((1-(1-methylpiperidin-4-yl)-1H-benzo[d]imidazol-5-yl)ethynyl)-N-(4-(trifluoromethyl)pyridin-2-yl)benzamide], the concentration for 50% growth inhibition (GI50) is 100 to 10000 nM in assay [1], 100 to 10000 nM in assay [2], 100 to 10000 nM in assay [3] and 10 to 50 nM at BAF3 FL KIT EX11DEL.

Consider `Cc1ccc(C(=O)Nc2cc(C(F)(F)F)ccn2)cc1C#Cc1ccc2c(c1)ncn2-c1ccccc1` [Compound I-21, 4-methyl-3-((1-phenyl-1H-benzo[d]imidazol-5-yl)ethynyl)-N-(4-(trifluoromethyl)pyridin-2-yl)benzamide], for which the GI50 (in assay [1]; in assay [2]; in assay [3]; on BAF3 FL KIT EX11DEL) was 100 to 10000 nM each time.

Regarding `Cc1ccc(C(=O)Nc2ccc(N3CCN(C)CC3)c(C(F)(F)F)c2)cc1C#Cc1ccc2c(c1)ncn2C` [Compound I-22, 4-methyl-3-((1-methyl-1H-benzo[d]imidazol-5-yl)ethynyl)-N-(4-(4-methylpiperazin-1-yl)-3-(trifluoromethyl)phenyl)benzamide], the GI50 (in assay [1]; in assay [2]; in assay [3]; at BAF3 FL KIT EX11DEL) was 100 to 10000 nM in each case.

As a reminder, the GI50 is the concentration that inhibits growth by half. A low value points to more potent growth inhibition.

The record behind these values is patent US11117883B2 (Ariad Pharmaceuticals, Inc., priority 2016, dated 2021).
